In patent US10039715B2, “Liposomal formulation of nonglycosidic ceramides and uses thereof” (LUDWIG INSTITUTE FOR CANCER RESEARCH LTD., priority 2010, dated 2018):

Tests used:
[1] = test system: murine invariant natural killer cells (iNKT); experiment: Activation of iNKT cells in splenocyte culture, IFNγ ELISA; assay type: cell-based, mice; conditions: splenocytes cultured 72 hours with material (titrating amounts 10 μg/ml, 1 μg/ml, 100 ng/ml; concentration of the tabulated values not stated), supernatant ELISA
Description: This Example illustrates ability of the threitolceramide-containing liposomes to activate murine invariant natural killer cells (iNKT) and human cells, as measured by IFNγ release.
Splenocytes were prepared from either wild type (WT) or CD1d^−/− (NKT cell deficient) mice and cultured in the presence of titrating amounts (10 μg/ml, 1 μg/ml, 100 ng/ml) of non-glycosidic ceramide containing liposomes (EPC:DDAB:TC(10); EPC:EPG:TC(2); EPC:EPG:TC(5); EPC:EPG:TC(10) and EPC:CHOL:TC(10)), control liposome (EPC:EPG), soluble threitolceramide or soluble α-GalCer for 72 hours. Soluble threitolceramide and soluble α-GalCer were prepared by dissolution in a chloroform/methanol/water solution (10:10:3) at 10 mg/mL. The resulting solution was diluted to a final volume of about 200 μg/mL using vehicle solution comprised of NaCl (about 150 mM) and polyoxyethylene (20) sorbitan monolaurate (i.e., Tween 20, 0.5%). Supernatants were removed from cultures and the amount of IFNγ produced by the cells was quantified by ELISA. Briefly, ELISA plates were coated with 1D1K antibody (Mabtech) and left overnight at 4° C. The plates were washed with 0.05% Tween 20 in PBS (v/v). To eliminate any non-specific antigen binding, the plates were coated (i.e. blocked) with 200 μL of 10% FCS in PBS (v/v) and incubated for 2 h at 37° C. […]

[2] = test system: iNKT cell; experiment: Activation of NKT cells in vivo, serum IL-4 and IFN-γ by ELISA; set-up: species or system mice; conditions: 1 μg intravenous injection; for IL-4 (serum): 2 hours; for INFγ (serum): 18 hours
Description: (§1) This example illustrates the in vivo effect of threitolceramide-containing liposomes on dendritic cell (DC) maturation, as measured by CD86 and CD40 expression, and iNKT cell activation, as measured by IL-4 and IFNγ release.
(§2) WT (n=3) and CD1d^−/− (n=1) mice were administered 1 μg of liposomes (EPC:DDAB:TC(10); EPC:EPG:TC(2); EPC:EPG:TC(5); EPC:EPG:TC(10) and EPC:CHOL:TC(10)) or control liposome (EPC:EPG), soluble threitolceramide or soluble α-GalCer by intravenous injection.
Serums were obtained by tail venipuncture 2 and 18 hours post-injection to detect IL-4 and IFN-γ levels by ELISA.

[3] = test system: dendritic cell (DC); experiment: DC maturation in vivo, CD86 and CD40 expression on spleen DC by flow cytometry; set-up: species or system mice; conditions: median fluorescent intensity, spleen DC 18 hours after 1 μg intravenous injection
Description: as §1, §2
18 hours post-injection, the spleens of the mice were harvested and the phenotype of DC maturation was examined by flow cytometry as determined by the median fluorescent intensity (MFI) of CD86 and CD40 expression.

SMILES	IFNγ [1]	IL-4 (serum) [2]	INFγ (serum) [2]	CD40 (DC maturation) Median [3]	CD86 (DC maturation) Median [3]
CCCCCCCCCCCCCCCCCCCCCCCCCC(=O)N[C@@H](COC[C@H](O)[C@@H](O)CO)[C@H](O)[C@H](O)CCCCCCCCCCCCCC [Soluble TC, threitolceramide]	3.77 ng/mL	0.12 ng/mL	0.99 ng/mL	28.9	60.1
CCCCCCCCCCCCCCCCCCCCCCCCCC(=O)N[C@@H](CO[C@H]1O[C@H](CO)[C@H](O)[C@H](O)[C@H]1O)[C@H](O)[C@H](O)CCCCCCCCCCCCCC [Soluble α-GalCer, α-Galactosylceramide]	9.21 ng/mL	0.83 ng/mL	8.47 ng/mL	39.1	91.6
